The structures appear in SMILES notation. In brackets after ≈: the same amount, converted by molar mass.

For test [1], the system named is blood platelet aggregation. Nature of the test: In vitro blood platelet aggregation inhibition (ADP-induced, rabbit PRP). The class given is cell-based, rabbits. The conditions noted are these: Oryctolagus cuniculus, 10 uM ADP (final), preincubated 37°C 2 minutes, read-out: Anti-platelet aggregation effect IC50. The text has this: The in vitro blood platelet aggregation inhibition effect of the sample compounds to be tested was examined by using rabbits. That is, blood was collected from the ear vein of native Japanese white male domestic rabbits weighing 2.5 to 3.5 kg. The collected blood was 9 parts by volume per 1 part by volume of a 3.8% sodium citrate solution. The blood was centrifuged at 1000 r.p.m. for 10 mintues. The upper layer portion was separated as PRP (rich in platelet blood plasma). The lower layer portion was further centrifuged at 2800 r.p.m. for 10 mintues to divide it into two layers. The upper layer portion was separated as PPP (poor in platelet blood plasma). The number of the platelet was diluted with PPP to 6 to […]. […]
When the activity of the sample compounds was determined, the ethanol solution was diluted with a phosphoric acid buffer (PH 7.4). The ethanol solution diluted with the buffer was left to stand at a temperature of 0°C for 4 hours, after which the activity of the sample compounds was determined in the same manner.
The platelet aggregation inhibition was calculated by the following formula: [formula] • T : the transmittance of the system to which the phosphoric acid buffer is added • T: the transmittance of the system to which the sample compounds are added […]

For test [2], the system named is ulcer formation induced by indomethacin. The experiment in a line: Antiulcerative effect: inhibition of indomethacin-induced ulcer formation in rats. It is filed as in vivo. The conditions noted are these: Rattus norvegicus, po; P.O; Wister male rats; indomethacin 20 mg/kg orally 30 minutes after sample; ulcer length 5 hours after indomethacin. The method, then: The inhibiting effect on ulcer formation induced by indomethacin was examined by using rats. Wister male rats (7 weeks old and body weight of 220 g) were abstained from food for 24 hours except giving water and then subjected to experiments.
The sample compounds to be tested were dissolved in a phosphoric acid buffer (pH 7.4) containing 0.9% NaCl and the solution was orally administered to the rats. 30 minutes after the administration, indomethacin was orally administered to the rats at a dose of 20 mg/kg. 5 hours after the administration of the indomethacin, the rats were kileld and the ulcer formation in the stomach was examined by determining the length of the ulcer formation portion under a stereomicroscope. From this measurement, the inhibition of ulcer formation by the sample compounds were calculated to determine the ED50 values.

The subject of test [3] is Ethanol Ulcer. Nature of the test: Effect against ethanol ulcer in rats. The class given is in vivo. To be noted: Rattus norvegicus, po, 1 h; P.O; SD type male rats; 75% ethanol 1 ml/kg orally 30 minutes after sample; ulcer length one hour after ethanol; read-out: Antiulcerative effect ED50. How it is done: SD type male rats (7 weeks old and body weight of 220 g) were abstained from food for 24 hours except giving water and then subjected to experiments.
The sample compound to be tested was dissolved in a phosphoric acid buffer (pH 7.4) containing 0.9% NaCl and the solution was orally administered to the rats. 30 minutes after the administration, 75% ethanol was orally administered to the rats at a dose of 1 ml/kg. One hour after the administration of the ethanol, the rats were killed and the ulcer formation in the stomach was examined by determining the length of the ulcer formation portion under a stereomicroscope. From this measurement, the inhibition of ulcer formation by the sample compound was calculated to determine the ED50 value.

As to `CCCCC(O)C/C=C/[C@H]1[C@H](O)CC(=O)[C@@H]1SCCCCCC(=O)OC` (stereo partly drawn) [Compound of this invention], the IC50 in test [1] was found to be 17 µg/mL (≈ 44 µM). The ED50 in test [2] is 0.01 mg/kg; in test [3], 0.018 mg/kg.

As a reminder, the IC50 is the midpoint of a concentration-inhibition curve. By ED50 is commonly meant the dose at which the effect has come halfway, by size or by number of responders.
